Values of other authors as cited in patent US9579288B2, “Tesofensine and beta blocker combination formulations” (Saniona A/S, priority 2015, dated 2017).

Assays:
DIO rats = conditions: rat model of diet-induced obesity (DIO)
[1] = obese patients, long-term treatment, corrected for placebo and diet effects

In the case of `CCOC[C@@H]1[C@@H](c2ccc(Cl)c(Cl)c2)C[C@@H]2CC[C@H]1N2C` [Tesofensine, (1R,2R,3S,5S)-3-(3,4-dichlorophenyl)-2-(ethoxymethyl)-8-methyl-8-azabicyclo[3.2.1]octane], the body weight (DIO rats) is given as “robust and sustained weight loss” and the weight loss [1] is given as “about 10%”.
